“And” between values parts separate entries of the source, which are not always exact repeats. Identical values can stand only once. Like-named read-outs stand apart in the source and are kept apart here. One block for each compound: values may come before it.
Legend:
[1] = 1H NMR-pH titration, protonation constants; format: physicochemical; conditions: for pKa: H2O:D2O = 9:1 solvent mixture; for log k: site-binding model without any pair-interactivity parameters (unsatisfactory fit); for pε12 = averaged interactivity parameter pε¯: site-binding model with a single interactivity parameter; for log kA (carboxylate core microconstant): site-binding model with a single interactivity parameter pε12 (pε¯)
Protocol: The pH meter readings were recorded using a Metrohm pH meter, equipped with a Metrohm 6.0234.110 combined glass electrode. A four-point calibration using pH 2.00, pH 4.00, pH 7.00 and pH 11.00 standard buffer solutions were performed directly before pH adjustments. The pH measurements were performed in 25 mL vessels with proper stirring before transferring 600 μL sample solutions into the NMR tubes. Solutions were prepared in the pH range of 1.50–8.70 with 0.30 increments using 0.9 M, 0.5 M and 0.1 M sodium hydroxide and hydrochloric acid solutions in H2O:D2O = 9:1.
For structural characterizations of CD derivatives in D2O, a 600 MHz Varian DDR NMR spectrometer equipped with a 5 mm inverse-detection gradient probe or a 400 MHz Varian Mercury Plus spectrometer equipped with a 5mm Varian 400 Automation Triple Resonance Broadband Pulsed Field Gradient probe was used. For NMR-pH titrations, the same instruments were used. The pH-dependent series of ^1H NMR spectra were recorded in a solvent mixture of H2O:D2O = 9:1 by volume, where the constant ionic strength and the buffer capacity were adjusted using 0.05 M sodium chloride and 0.05 M acetic acid-d4. An appropriate amount of CD was weighed to obtain a 1 mM solution and finally one drop of methanol was added as a chemical shift reference (3.310 ppm). The water resonance was diminished by the dpfgse pulse sequence or presaturation. All the spectra were processed using the MestReNova v9.0.1-13254 (Mestralab Research, S.L., Santiago de Compostela, Spain) software.
The standard macroscopic evaluation of NMR-pH titration curves (Equation (3) in Section 2.2) was performed with the following software tools: Microcal Origin Pro 8 (OriginLab Corp., Northampton, MA, USA), HypNMR2018 [38], OPIUM [39] and home-written R scripts (R version 4.1.2, The R Foundation, Vienna, Austria) using the nls module. The equidistant macroscopic (Equation (8)) and Q-fitting (Equations (4) and (11)) models were fitted both by Origin and our R-scripts to verify their equivalent performance regarding statistical description of the parameter estimates. The microscopic cluster expansion model in Section 2.5 requires summation of >100 variables which is unfeasible in the form of an explicit model function required by commercial data-fitting software like Origin. The enumeration of microspecies was therefore accomplished in a custom-written R script. To assess the robustness of our data-fitting model as well as the error propagation of the optimized log k and pε parameters to the derived log K macroconstants, Monte Carlo simulations on >1000 replicates were performed in R.

[2] = parameters: method as in PMID 18613172; conditions: literature, cited from earlier work
[3] = ED macro or Q-fitting evaluation, ? = physically unrealistic, SD in parentheses
[4] = ED macro or Q-fitting evaluation, H2O:D2O = 9:1, 0.05 M NaCl, SD in parentheses
[5] = from ED macro or Q-fitting macroconstants by Eq. 18
[6] = from ED macro or Q-fitting macroconstants by Eq. 18, ? = physically unrealistic
[7] = site-binding (SB) microscopic evaluation
[8] = site-binding (SB) microscopic evaluation, converted from log kA and pε, errors by Monte Carlo
[9] = site-binding model with two interactivity parameters, standard deviation 138, overparametrized
[10] = converted from optimized microscopic basicity parameters (site-binding model)

log K ([1]; standard macroscopic evaluation, Equation (3), n = 1): 4.35 (0.01)
Structure (SMILES): O=C(O)CCSC[C@H]1O[C@@H]2O[C@H]3[C@H](O)[C@@H](O)[C@@H](O[C@H]4[C@H](O)[C@@H](O)[C@@H](O[C@H]5[C@H](O)[C@@H](O)[C@@H](O[C@H]6[C@H](O)[C@@H](O)[C@@H](O[C@H]7[C@H](O)[C@@H](O)[C@@H](O[C@H]8[C@H](O)[C@@H](O)[C@@H](O[C@H]9[C@H](O)[C@@H](O)[C@@H](O[C@H]1[C@H](O)[C@H]2O)O[C@@H]9CO)O[C@@H]8CO)O[C@@H]7CO)O[C@@H]6CO)O[C@@H]5CO)O[C@@H]4CO)O[C@@H]3CO [mono-Suγ-CD, mono-sugammadex]

log K4 [1, 3]: 4.70 (0.14)
log K6 [1, 3]: 3.77 (0.07)
log K1 [1, 4]: 6.43 (0.07)
log K2 [1, 4]: 5.79 (0.09)
log K3 [1, 4]: 5.26 (0.11)
pKa ([1]; converted from optimized microscopic basicity parameters (site-binding model), read-out: macroscopic pKa, 1st of the set): 3.84
pKa ([1]; converted from optimized microscopic basicity parameters (site-binding model), read-out: macroscopic pKa, 2nd of the set): 4.35
pKa ([1]; converted from optimized microscopic basicity parameters (site-binding model), read-out: macroscopic pKa, 3rd of the set): 4.81
pKa ([1]; converted from optimized microscopic basicity parameters (site-binding model), read-out: macroscopic pKa, 4th of the set): 5.31
pKa ([1]; converted from optimized microscopic basicity parameters (site-binding model), read-out: macroscopic pKa, 5th of the set): 5.78
pKa ([1]; converted from optimized microscopic basicity parameters (site-binding model), read-out: macroscopic pKa, 6th of the set): 6.28
log k¯1 (averaged microconstant) [1, 5]: 5.65 (0.07)
log k¯2 (averaged microconstant) [1, 5]: 5.39 (0.09)
log k¯3 (averaged microconstant) [1, 5]: 5.13 (0.12)
log k¯6 (averaged microconstant) [1, 6]: 4.55 (0.07)
log k¯1 (averaged microconstant) [1, 7]: 5.51 (0.02)
log k¯2 (averaged microconstant) [1, 7]: 5.38 (0.02)
log k¯3 (averaged microconstant) [1, 7]: 5.18 (0.02)
log k¯4 (averaged microconstant) [1, 7]: 4.94 (0.02)
log k¯5 (averaged microconstant) [1, 7]: 4.75 (0.02)
log k¯6 (averaged microconstant) [1, 7]: 4.62 (0.02)
log K1 [1, 8]: 6.28 (0.02)
log K2 [1, 8]: 5.78 (0.02)
log K3 [1, 8]: 5.31 (0.02)
log K4 [1, 8]: 4.81 (0.02)
log K5 [1, 8]: 4.35 (0.02)
log K6 [1, 8]: 3.84 (0.02)
log kA ([1]; site-binding model with two interactivity parameters (pε12 and pε13), overparametrized): 5.63 (7)
pε12 [1, 9]: 0.28
pε13 [1, 9]: 0.28
log k [1]: 5.049
Structure (SMILES): O=C(O)CCSC[C@H]1O[C@@H]2O[C@H]3[C@H](O)[C@@H](O)[C@@H](O[C@H]4[C@H](O)[C@@H](O)[C@@H](O[C@H]5[C@H](O)[C@@H](O)[C@@H](O[C@H]6[C@H](O)[C@@H](O)[C@@H](O[C@H]7[C@H](O)[C@@H](O)[C@@H](O[C@H]1[C@H](O)[C@H]2O)O[C@@H]7CSCCC(=O)O)O[C@@H]6CSCCC(=O)O)O[C@@H]5CSCCC(=O)O)O[C@@H]4CSCCC(=O)O)O[C@@H]3CSCCC(=O)O [Suα-CD, sualphadex]

log K5 [1, 3]: 4.54 (0.06)
log K7 [1, 3]: 3.69 (0.03)
log K1 [1, 4]: 6.60 (0.03)
log K2 [1, 4]: 6.18 (0.04)
log K3 [1, 4]: 5.27 (0.08)
macroscopic pKa, 1st of the set [1, 10]: 3.82
macroscopic pKa, 2nd of the set [1, 10]: 4.31
macroscopic pKa, 3rd of the set [1, 10]: 4.73
macroscopic pKa, 4th of the set [1, 10]: 5.18
macroscopic pKa, 5th of the set [1, 10]: 5.64
macroscopic pKa, 6th of the set [1, 10]: 6.06
macroscopic pKa, 7th of the set [1, 10]: 6.54
log k¯1 (averaged microconstant) [1, 5]: 5.75 (0.03)
log k¯2 (averaged microconstant) [1, 5]: 5.71 (0.04)
log k¯3 (averaged microconstant) [1, 5]: 5.04 (0.08)
log k¯5 (averaged microconstant) [1, 6]: 4.76 (0.06)
log k¯7 (averaged microconstant) [1, 6]: 4.53 (0.03)
log k¯1 (averaged microconstant) [1, 7]: 5.70 (0.02)
log k¯2 (averaged microconstant) [1, 7]: 5.58 (0.02)
log k¯3 (averaged microconstant) [1, 7]: 5.42 (0.02)
log k¯4 (averaged microconstant) [1, 7]: 5.18 (0.01)
log k¯5 (averaged microconstant) [1, 7]: 4.95 (0.02)
log k¯6 (averaged microconstant) [1, 7]: 4.78 (0.02)
log k¯7 (averaged microconstant) [1, 7]: 4.67 (0.02)
log K1 [1, 8]: 6.54 (0.02)
log K2 [1, 8]: 6.06 (0.02)
log K3 [1, 8]: 5.64 (0.02)
log K4 [1, 8]: 5.18 (0.01)
log K5 [1, 8]: 4.73 (0.02)
log K6 [1, 8]: 4.31 (0.02)
log K7 [1, 8]: 3.82 (0.02)
pε12 = averaged interactivity parameter pε¯ [1]: 0.5144
log kA (carboxylate core microconstant) [1]: 5.697 and 5.70
log k [1]: 5.17
Structure (SMILES): O=C(O)CCSC[C@H]1O[C@@H]2O[C@H]3[C@H](O)[C@@H](O)[C@@H](O[C@H]4[C@H](O)[C@@H](O)[C@@H](O[C@H]5[C@H](O)[C@@H](O)[C@@H](O[C@H]6[C@H](O)[C@@H](O)[C@@H](O[C@H]7[C@H](O)[C@@H](O)[C@@H](O[C@H]8[C@H](O)[C@@H](O)[C@@H](O[C@H]1[C@H](O)[C@H]2O)O[C@@H]8CSCCC(=O)O)O[C@@H]7CSCCC(=O)O)O[C@@H]6CSCCC(=O)O)O[C@@H]5CSCCC(=O)O)O[C@@H]4CSCCC(=O)O)O[C@@H]3CSCCC(=O)O [Suβ-CD, subetadex]
log K1 ([2]; potentiometric): 6.49 (1)
log K2 ([2]; potentiometric): 5.69 (1)
log K3 ([2]; potentiometric): 5.25 (1)
log K4 ([2]; potentiometric): 4.75 (1)
log K5 ([2]; potentiometric): 4.31 (1)
log K6 ([2]; potentiometric): 3.78 (1)
log K7 ([2]; potentiometric): <3
log kA [2]: 5.64

log K4 [1, 3]: 5.28 (0.22)
log K5 [1, 3]: 5.14 (0.22)
log K6 [1, 3]: 4.59 (0.17)
log K1 [1, 4]: 6.68 (0.08)
log K2 [1, 4]: 6.17 (0.12)
log K3 [1, 4]: 5.88 (0.16)
log K8 ([1]; ED macro or Q-fitting evaluation, SD in parentheses): 3.78 (0.07)
macroscopic pKa, 1st of the set [1, 10]: 3.83
macroscopic pKa, 2nd of the set [1, 10]: 4.28
macroscopic pKa, 3rd of the set [1, 10]: 4.65
macroscopic pKa, 4th of the set [1, 10]: 5.03
macroscopic pKa, 5th of the set [1, 10]: 5.43
macroscopic pKa, 6th of the set [1, 10]: 5.81
macroscopic pKa, 7th of the set [1, 10]: 6.18
macroscopic pKa, 8th of the set [1, 10]: 6.64
log k¯1 (averaged microconstant) [1, 5]: 5.77 (0.08)
log k¯2 (averaged microconstant) [1, 5]: 5.63 (0.12)
log k¯3 (averaged microconstant) [1, 5]: 5.58 (0.16)
log k¯8 (averaged microconstant) [1, 5]: 4.69 (0.07)
log k¯4 (averaged microconstant) [1, 6]: 5.18 (0.22)
log k¯5 (averaged microconstant) [1, 6]: 5.24 (0.22)
log k¯6 (averaged microconstant) [1, 6]: 4.89 (0.17)
log k¯1 (averaged microconstant) [1, 7]: 5.73 (0.02)
log k¯2 (averaged microconstant) [1, 7]: 5.64 (0.02)
log k¯3 (averaged microconstant) [1, 7]: 5.51 (0.02)
log k¯4 (averaged microconstant) [1, 7]: 5.33 (0.01)
log k¯5 (averaged microconstant) [1, 7]: 5.13 (0.01)
log k¯6 (averaged microconstant) [1, 7]: 4.95 (0.02)
log k¯7 (averaged microconstant) [1, 7]: 4.82 (0.02)
log k¯8 (averaged microconstant) [1, 7]: 4.73 (0.02)
log K1 [1, 8]: 6.64 (0.02)
log K2 [1, 8]: 6.18 (0.02)
log K3 [1, 8]: 5.81 (0.02)
log K4 [1, 8]: 5.43 (0.01)
log K5 [1, 8]: 5.03 (0.01)
log K6 [1, 8]: 4.65 (0.02)
log K7 [1, 8]: 4.28 (0.02)
log K8 [1, 8]: 3.83 (0.02)
pε12 = averaged interactivity parameter pε¯ [1]: 0.503
log kA (carboxylate core microconstant) [1]: 5.735 and 5.73
log k [1]: 5.22
Structure (SMILES): O=C(O)CCSC[C@H]1O[C@@H]2O[C@H]3[C@H](O)[C@@H](O)[C@@H](O[C@H]4[C@H](O)[C@@H](O)[C@@H](O[C@H]5[C@H](O)[C@@H](O)[C@@H](O[C@H]6[C@H](O)[C@@H](O)[C@@H](O[C@H]7[C@H](O)[C@@H](O)[C@@H](O[C@H]8[C@H](O)[C@@H](O)[C@@H](O[C@H]9[C@H](O)[C@@H](O)[C@@H](O[C@H]1[C@H](O)[C@H]2O)O[C@@H]9CSCCC(=O)O)O[C@@H]8CSCCC(=O)O)O[C@@H]7CSCCC(=O)O)O[C@@H]6CSCCC(=O)O)O[C@@H]5CSCCC(=O)O)O[C@@H]4CSCCC(=O)O)O[C@@H]3CSCCC(=O)O [Suγ-CD, sugammadex, reference compound]
